Measurements reported in patent US5169780A, “Enantiomeric enrichment and stereoselective synthesis of chiral amines” (Celgene Corporation, priority 1990, dated 1992).

Experiments:
[1] = tested on: omega-amino acid transaminase; experiment: relative rates of conversion of different chiral amines by soluble enzymatic preparations; format: biochemical; details: for conversion to the nonchiral ketone by the transaminase: racemate subjected to the enzyme
Protocol: (§1) Enzyme Activity: Enzyme activity is expressed herein as units/mg. A unit of enzyme activity is defined as that which produces 1 micromole of ketone per minute. For uniformity, this is measured as micromoles of 1-phenylbutan-3-one formed from R,S-1-phenyl-3-aminobutane. The following standardized assay was utilized to measure the activity of the omega-amino acid transaminases set forth in the examples which follow.
(§2) A known volume of the enzyme preparation to be tested is incubated at 37° C. and pH 7 in a solution having the following composition:
(§3) A sample is removed and 20% by volume of 12% aqueous trichloroacetic acid are added. Precipitated protein is removed by centrifugation and the concentration of 1-phenylbutan-3-one in the supernatant is determined by liquid chromatography on a 100×8 mm 4 micron Novopak phenyl column eluting with 40% isopropanol and 0.09% phosphoric acid in water. Under these conditions, 1-phenylbutan-3-one elutes at 5.3 minutes.
The following procedure exemplifies the relative rates of conversion, determined directly or calculated from kinetic data, of different chiral amines by soluble enzymatic preparations utilizing the assay described above but substituting the indicated chiral amine.

Bacillus megaterium = experiment: induction of omega-amino acid transaminase production by addition of an amine to cultures; format: cell-based; details: 2 mM amine inducer, 30 to 40 hours; for Specific Activity (units/mg) Acetate: 40 mM acetate as carbon source; for Specific Activity (units/mg) Succinate: 40 mM succinate as carbon source
Protocol: as §1, §2, §3
Enzyme Recovery: Unless otherwise indicated, cells from culture are centrifuged for 10 minutes at 10,000 G, resuspended in 10 mM of phosphate buffer at pH 7 and 0.5 mM of pyridoxal phosphate, and ruptured by two passes through a chilled French press operating at 15,000 psi. Cell debris is removed by centrifugation for one hour at 10,000 G and the enzyme-containing supernatant collected.
The following procedure exemplifies the growth of microorganisms using ammonium as the sole nitrogen source and then inducing omega-amino acid transaminase production by the addition of an amine.
Bacillus megaterium was grown in 1 L cultures in the standard salt medium supplemented with 40 mM of the indicated carbon source, 5 mM of ammonium chloride, 80 mM of phosphate buffer, and 2 mM of the amine inducer indicated below. After 30 to 40 hours, the enzyme was collected and assayed as described above.

[2] = tested on: omega-amino acid transaminase; experiment: standardized omega-amino acid transaminase activity assay (1-phenylbutan-3-one formed from R,S-1-phenyl-3-aminobutane), B. megaterium enzyme; format: biochemical, Bacillus megaterium
Protocol: as §1, §2, §3
(§4) Enzyme extracts from P. putida, B. megaterium, and P. aeruginosa obtained as above were assayed as above at pH 9 in 50 mM of Tris/HCl using 30 mM of R,S-1-phenyl-3-aminobutane, with and without 100 mM of sodium pyruvate. The following relative rates of conversion were observed.
(§5) The transaminase nature of the enzymatic action is apparent from the effect of "suicide inactivators" known to be specific for transaminases {see, for example, Burnett et al., J. Bio. Chem., 225, 428-432 (1980)}, the inactivator (0.5 mM) being preincubated with the assay medium before addition of R,S-1-phenyl-3-aminobutane.
(§6) The stereoselectivity of the omega-amino acid transaminase can be seen from the corresponding assay utilizing 15 mM of R-1-phenyl-3-aminobutane (with pyruvate).

[3] = tested on: omega-amino acid transaminase; experiment: standardized omega-amino acid transaminase activity assay, P. putida enzyme; format: biochemical, Pseudomonas putida
Protocol: as §1, §2, §3
Pseudomonas putida ATCC 39213 was cultured as described in Example 1 and an enzyme extract then was obtained as therein described. The specific activity of the omega-amino acid transaminase was 0.045 units/mg.
as §4, §5, §6

[4] = biological target: T1, omega-amino acid transaminase (Pseudomonas aeruginosa, UniProt Q9I700); experiment: standardized omega-amino acid transaminase activity assay, P. aeruginosa enzyme; format: biochemical
T1 construct: cell extracts containing the omega-amino acid transaminase then are obtained as therein described; host or cells: Pseudomonas aeruginosa ATCC 15692, cell extract
T1 sequence (Q9I700 1-448): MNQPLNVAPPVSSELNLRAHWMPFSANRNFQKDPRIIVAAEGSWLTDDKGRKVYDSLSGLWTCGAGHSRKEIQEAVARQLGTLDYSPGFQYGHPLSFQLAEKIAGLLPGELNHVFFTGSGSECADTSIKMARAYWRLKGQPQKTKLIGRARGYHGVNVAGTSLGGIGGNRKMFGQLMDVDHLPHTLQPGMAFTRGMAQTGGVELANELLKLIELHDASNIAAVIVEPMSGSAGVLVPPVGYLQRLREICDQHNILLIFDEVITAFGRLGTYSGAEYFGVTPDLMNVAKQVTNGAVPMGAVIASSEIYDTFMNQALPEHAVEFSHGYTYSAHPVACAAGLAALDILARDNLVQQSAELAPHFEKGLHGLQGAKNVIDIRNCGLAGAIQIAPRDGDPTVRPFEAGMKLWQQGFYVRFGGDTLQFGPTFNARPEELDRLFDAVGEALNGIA

[5] = tested on: omega-amino acid transaminase; experiment: relative rates of conversion of 1-phenyl-3-aminobutane with different amino acceptors in place of pyruvate; format: biochemical; details: for Relative Rate of Conversion: substrate 1-phenyl-3-aminobutane
Protocol: as §1, §2, §3
The following procedure exemplifies the relative rates of conversion with 1-phenyl-3-aminobutane employing different amino acceptors in place of pyruvate in the assay described above.

[6] = tested on: omega-amino acid transaminase; experiment: rate of immobilized enzyme reaction with added benzylacetone; format: biochemical, Bacillus megaterium; details: 80 mM R,S-1-phenyl-3-aminobutane, 60 mM glyoxylate, pH 6.5
Protocol: Immobilization: A 47 mm diameter […] (FMC Corp.) support matrix (0.4 g) was loaded into a housing (Millipore Sweenex) fitted with inlet and outlet tubing, a peristaltic pump, and reservoir. The matrix was washed sequentially, at ambient temperatures and a rate of 3 ml/min., with (1) 200 ml of 50 mM of phosphate buffer (pH 7) containing 0.5 mM pyridoxal phosphate over a period of 20 min., (2) 11 ml of a 4.6 mg/ml solution of enzyme obtained in the manner of Example 1 for 120 min., (3) 150 ml of 0.3 M sodium chloride in 50 mM of phosphate buffer (pH 7) containing 0.5 mM pyridoxal phosphate for 30 minutes, and (4) 200 ml of 50 mM of phosphate buffer (pH 7) containing 0.5 mM pyridoxal phosphate over a period of 20 min.
A solution of omega-amino acid transaminase was immobilized onto a matrix according to the methods in Example 16. Four independent 200 milliliter substrate solutions containing 80 mM of R,S-1-phenyl-3-aminobutane, 60 mM glyoxylate, 0.1 mM pyridoxal phospate, and 50 mM potassium phosphate (pH 6.5) were prepared. Benzylacetone in concentrations of 0.50 mM, 0.85 mM, 1.45 mM, and 2.55 mM, respectively, were added to the four substrate solutions and these were pumped through the immobilized enzyme matrix. The rate of the enzyme catalyzed reaction was measured in micromoles/minute.

[7] = stereoselectivity: 15 mM R-1-phenyl-3-aminobutane versus R,S-, with pyruvate
[8] = inactivator 0.5 mM preincubated before addition of R,S-1-phenyl-3-aminobutane, None = 100
[9] = general statement of the description

`CC(N)c1ccccc1` (racemic) [R,S-1-phenyl-1-aminoethane] was tested, and the “Relative Rate of Conversion R-enantiomer” value ([1]; amine (R,S) 10 mM) was 0, the “Relative Rate of Conversion S-enantiomer” value ([1]; amine (R,S) 10 mM) was 100 and the “Specific Activity (units/mg) Acetate” value (Bacillus megaterium) was 0.39 units/mg. The “Specific Activity (units/mg) Succinate” value (Bacillus megaterium) was 0.27 units/mg.

`CC(N)CCc1ccccc1` (racemic) [R,S-1-phenyl-3-aminobutane] was tested, and the “Relative Rate of Conversion B. megaterium” value [2, 7] was 100, the “Relative Rate of Conversion P. putida” value [3, 7] was 100 and the “Relative Rate of Conversion R-enantiomer” value ([1]; amine (R,S) 30 mM) was 5. For the same molecule, the “Relative Rate of Conversion S-enantiomer” value ([1]; amine (R,S) 30 mM) was 100, the “Relative Rate of Conversion P. aeruginosa” value [4, 7] was 100 and the “Specific Activity (units/mg) Acetate” value (Bacillus megaterium) was 0.33 units/mg. The “Specific Activity (units/mg) Gluconate” value (Bacillus megaterium; 40 mM gluconate as carbon source) was 0.26 units/mg, the “Specific Activity (units/mg) Glucose” value (Bacillus megaterium; 40 mM glucose as carbon source) was 0.62 units/mg and the “Specific Activity (units/mg) Succinate” value (Bacillus megaterium) was 0.28 units/mg.

For `CCC(C)N` (racemic) [R,S-2-aminobutane], the “Specific Activity (units/mg) Acetate” value (Bacillus megaterium) was 0.14 units/mg and the “Specific Activity (units/mg) Succinate” value (Bacillus megaterium) was 0.13 units/mg.

For `CC(N)c1ccc(Br)cc1` (stereo not drawn) [1-(4-bromophenyl)-1-aminoethane], the “Relative Rate of Conversion R-enantiomer” value ([1]; amine (R,S) 30 mM) was 0 and the “Relative Rate of Conversion S-enantiomer” value ([1]; amine (R,S) 30 mM) was 100.

For `CC(N)c1ccc([N+](=O)[O-])cc1` (stereo not drawn) [1-(4-nitrophenyl)-1-aminoethane], the “Relative Rate of Conversion R-enantiomer” value ([1]; amine (R,S) 5 mM) was 0 and the “Relative Rate of Conversion S-enantiomer” value ([1]; amine (R,S) 5 mM) was 100.

For `CC(N)c1cccc2ccccc12` (stereo not drawn) [1-(α-naphthyl)1-aminoethane], the “Relative Rate of Conversion R-enantiomer” value ([1]; amine (R,S) 10 mM) was 0 and the “Relative Rate of Conversion S-enantiomer” value ([1]; amine (R,S) 10 mM) was 100.

In the case of `CCC(N)c1ccccc1` (stereo not drawn) [1-phenyl-1-aminopropane], the “Relative Rate of Conversion R-enantiomer” value ([1]; amine (R,S) 20 mM) is reported as 11 and the “Relative Rate of Conversion S-enantiomer” value ([1]; amine (R,S) 20 mM) is reported as 100.

With `CCCCCCC(C)N` (stereo not drawn) [2-aminooctane] the “Relative Rate of Conversion R-enantiomer” value ([1]; amine (R,S) 5 mM) was 0 and the “Relative Rate of Conversion S-enantiomer” value ([1]; amine (R,S) 5 mM) was 100.

With `CCCC(C)=O` [2-pentanone] the “Relative Rate of Conversion” value ([5]; amino acceptor 25 mM) was 33.

For `CC(N)Cc1ccccc1` (stereo not drawn) [3-phenyl-2-aminopropane], the “Relative Rate of Conversion R-enantiomer” value ([1]; amine (R,S) 10 mM) was 100, the “Relative Rate of Conversion S-enantiomer” value ([1]; amine (R,S) 10 mM) was 0 and the “Relative Rate of Conversion R-enantiomer” value ([1]; amine (R,S) 15 mM) was 7. For the same molecule, the “Relative Rate of Conversion S-enantiomer” value ([1]; amine (R,S) 15 mM) was 100.

`CC(N)CCCc1cccnc1` (stereo not drawn) [5-(3-pyridyl)-2-aminopentane] was tested, and the “Relative Rate of Conversion R-enantiomer” value ([1]; amine (R,S) 5 mM) was 0 and the “Relative Rate of Conversion S-enantiomer” value ([1]; amine (R,S) 5 mM) was 100.

`NC1C=CC=C(C(=O)O)C1` (stereo not drawn) [Gabaculine, reference compound] was tested, and the “Relative Rate of Conversion B. megaterium” value [2, 8] was 13 and the “Relative Rate of Conversion P. putida” value [3, 8] was 0.

`NO` [Hydroxylamine, reference compound] was tested, and the “Relative Rate of Conversion B. megaterium” value [2, 8] was 10, the “Relative Rate of Conversion P. putida” value [3, 8] was 3 and the “Relative Rate of Conversion P. aeruginosa” value [4, 8] was 0.

In the case of `C[C@@H](N)c1ccc(Br)cc1` [R-1-amino-1-(4-bromophenyl)ethane], the “conversion to the nonchiral ketone by the transaminase” value [1, 9] is reported as “unchanged”.

For `C[C@@H](N)c1ccccc1` [R-1-phenyl-1-aminoethane], the “conversion to the nonchiral ketone by the transaminase” value [1, 9] was “unchanged”, the “Specific Activity (units/mg) Acetate” value (Bacillus megaterium) was 0.36 units/mg and the “Specific Activity (units/mg) Succinate” value (Bacillus megaterium) was 0.27 units/mg.

With `C[C@@H](N)CCc1ccccc1` [R-1-phenyl-3-aminobutane] the “Relative Rate of Conversion B. megaterium” value [2, 7] was 15, the “Relative Rate of Conversion P. putida” value [3, 7] was 3 and the “conversion to 1-phenylbutan-3-one as a factor of that of the S-form” value [1, 9] was ≤ 0.05. The “Relative Rate of Conversion P. aeruginosa” value [4, 7] was 4, the “Specific Activity (units/mg) Acetate” value (Bacillus megaterium) was 0.26 units/mg and the “Specific Activity (units/mg) Succinate” value (Bacillus megaterium) was 0.21 units/mg.

`CC[C@@H](C)N` [R-2-aminobutane] was tested, and the “Specific Activity (units/mg) Acetate” value (Bacillus megaterium) was 0.13 units/mg and the “Specific Activity (units/mg) Succinate” value (Bacillus megaterium) was 0.06 units/mg.

`CC=O` [acetaldehyde] was tested, and the “Relative Rate of Conversion” value ([5]; amino acceptor 20 mM) was 50.

For `CC(=O)c1ccccc1` [acetophenone], the relative rates ([5]; as amino acceptor, concentration not given) was ≤ 10.

With `O=Cc1ccccc1` [benzaldehyde] the “Relative Rate of Conversion” value ([5]; amino acceptor 25 mM) was 17.

With `CC(=O)CCc1ccccc1` [benzylacetone] the “ENZYME ACTIVITY” value ([6]; benzylacetone 0.50 mM) was 11.2 µM/min, the “ENZYME ACTIVITY” value ([6]; benzylacetone 0.85 mM) was 9.5 µM/min and the “ENZYME ACTIVITY” value ([6]; benzylacetone 1.45 mM) was 8.1 µM/min. The “ENZYME ACTIVITY” value ([6]; benzylacetone 2.55 mM) was 6.1 µM/min.

In the case of `CCC(C)=O` [butan-2-one], the “Relative Rate of Conversion” value ([5]; amino acceptor 20 mM) is reported as 20.

With `CCCC=O` [butyraldehyde] the “Relative Rate of Conversion” value ([5]; amino acceptor 20 mM) was 90.

In the case of `O=C1CCCCC1` [cyclohexanone], the “Relative Rate of Conversion” value ([5]; amino acceptor 25 mM) is reported as 23.

With `O=C1CCCC1` [cyclopentanone] the “Relative Rate of Conversion” value ([5]; amino acceptor 25 mM) was 12.

In the case of `O=CC(=O)O` [glyoxalate], the “Relative Rate of Conversion” value ([5]; amino acceptor 20 mM) is reported as 50.

`CCCCCCC=O` [heptaldehyde] was tested, and the “Relative Rate of Conversion” value ([5]; amino acceptor 25 mM) was 80.

`NC(CO)c1ccccc1` (stereo not drawn) [phenylglycinol] was tested, and the “Relative Rate of Conversion R-enantiomer” value ([1]; amine (R,S) 10 mM) was 100 and the “Relative Rate of Conversion S-enantiomer” value ([1]; amine (R,S) 10 mM) was 0.

With `CCC=O` [propionaldehyde] the “Relative Rate of Conversion” value ([5]; amino acceptor 20 mM) was 100.

With `NCCc1ccc(O)cc1` [tyramine] the “Specific Activity (units/mg) Acetate” value (Bacillus megaterium) was 0.24 units/mg.
